Laboratory results from patent US20230381129A1, “PERMETRIN FOR USE IN THE TREATMENT OF DEMODEX SPP INFESTATION” (priority 2020, published 2023).
Structures can show the parent of a compound that is named as a salt.

Experiments:
Demodex mites = assay: In vitro survival study of Demodex mites on a glass slide without a coverslip; set-up: species or system Demodex spp.
Description: At least ten eyelashes from the upper and lower eyelids of both eyes were randomly collected from all subjects from the subsequent groups. The collected material was assessed in a UB-203i light microscope with a five-point revolver bowl and a vision track with a magnification of 4×, 10×, 20×, 40× and 100×, archiving the results with a digital camera type Toupcam TP 601300A from Touptek Photonics installed in the device.
In the case of the presence of Demodex mites, several dozen different chemical compounds in various concentrations with a potential demodicidal effect were used on the glass slide without the use of a coverslip. […] The in vitro test results for permethrin and fluralaner were archived using a Toupcam TP 601300A digital camera from Touptek Photonics mounted on the device.

Demodex spp. infestation = assay: Topical use of shampoo or shower gel in a person with inflammation and redness; assay type: in vivo, humans; conditions: shampoo or shower gel containing 0.75% active, 3 times a week for 2 months, human
Text: A shampoo or shower gel containing 0.75% permethrin is used 3 times a week for a period of 2 months.
Shampoo or shower gel containing 0.75% fluralaner is used 3 times a week for a period of 2 months.
A shampoo or shower gel containing 0.5% fluralaner and 0.5% permethrin is used 3 times a week for a period of 2 months.

CN(C)C(=O)Oc1cccc([N+](C)(C)C)c1 [Polstigmine (neostigmine methyl sulfate), neostigmine methyl sulfate]
Time of Survival of Demodex mites (Demodex mites; concentration 0.05%): more than 15 minutes

CC=CC(=O)N(CC)c1ccccc1C [Crotamiton]
Time of Survival of Demodex mites (Demodex mites; concentration 10%): more than 15 minutes

O=C(OCc1ccccc1)c1ccccc1 [Novosscabin (benzyl benzoate), benzyl benzoate]
Time of Survival of Demodex mites (Demodex mites; concentration 30%): more than 15 minutes

CCO [Ethanol]
Time of Survival of Demodex mites (Demodex mites; concentration 98%): more than 15 minutes

CNC[C@H](O)c1cccc(O)c1.Cl [Phenylephrini hydrochloridum]
Time of Survival of Demodex mites (Demodex mites; concentration 10%): more than 15 minutes

CN1[C@@H]2CC[C@H]1CC(OC(=O)C(CO)c1ccccc1)C2.CN1[C@@H]2CC[C@H]1CC(OC(=O)C(CO)c1ccccc1)C2.O=S(=O)(O)O (stereo partly drawn) [Atropinum sulfuricum]
Time of Survival of Demodex mites (Demodex mites; concentration 1%): more than 15 minutes

OO [Hydrogen peroxide (hydrogen peroxide), Hydrogen peroxide]
Time of Survival of Demodex mites (Demodex mites; concentration 3%): more than 15 minutes

N=C(NCCCCCCNC(=N)NC(=N)Nc1ccc(Cl)cc1)NC(=N)Nc1ccc(Cl)cc1.O=C(O)[C@H](O)[C@@H](O)[C@H](O)[C@H](O)CO.O=C(O)[C@H](O)[C@@H](O)[C@H](O)[C@H](O)CO [Manusan (chlorhexidine digluconate), chlorhexidine digluconate]
Time of Survival of Demodex mites (Demodex mites; concentration 4%): more than 15 minutes

CC[C@@H]1C(=O)OC[C@@H]1Cc1cncn1C.Cl [Pilocarpinum hydrochloridum]
Time of Survival of Demodex mites (Demodex mites; concentration 2%): more than 15 minutes

NC(N)=O [Urea]
Time of Survival of Demodex mites (Demodex mites; concentration 20%): more than 15 minutes

O=C(O)c1cn(C2CC2)c2cc(N3CCNCC3)c(F)cc2c1=O [Ciprofloxacin]
Time of Survival of Demodex mites (Demodex mites; concentration 0.30%): more than 15 minutes

CN(C)CCOC(=O)C(c1ccccc1)C1(O)CCCC1 (stereo not drawn) [Cyclopentolat]
Time of Survival of Demodex mites (Demodex mites; concentration 1%): more than 15 minutes

Cc1cc(C2=NOC(c3cc(Cl)cc(Cl)c3)(C(F)(F)F)C2)ccc1C(=O)NCC(=O)NCC(F)(F)F (stereo not drawn) [Fluralaner, 4-[(5R5)-5-(3,5-dichlorophenyl)-4,5-dihydro-5-(trifluoromethyl)-1,2-oxazol-3-yl]-N-[2-oxo-2-(2,2,2-trifluoroethylamino)ethyl]-o-toluamide]
Time of Survival of Demodex mites (Demodex mites; concentration 10%): 6 min
Eyelid margin inflammation and eye symptoms (burning, itching, dry eyes, scales and deposits) after treatment (Demodex spp. infestation): reduction in inflammation of the eyelid margins
Skin inflammation symptoms and redness after treatment (Demodex spp. infestation): visible improvement

NCC[C@H](O)C(=O)N[C@@H]1C[C@H](N)[C@@H](O[C@H]2O[C@H](CN)[C@@H](O)[C@H](O)[C@H]2O)[C@H](O)[C@H]1O[C@H]1O[C@H](CO)[C@@H](O)[C@H](N)[C@H]1O [Amikacin]
Time of Survival of Demodex mites (Demodex mites; concentration 0.30%): more than 15 minutes

Ivermectin
Time of Survival of Demodex mites (Demodex mites; concentration 1%): more than 15 minutes

NC[C@H]1O[C@H](O[C@H]2[C@H](O)[C@@H](O[C@H]3O[C@H](CO)[C@@H](O)[C@H](N)[C@H]3O)[C@H](N)C[C@@H]2N)[C@H](N)C[C@@H]1O [Tobramycin]
Time of Survival of Demodex mites (Demodex mites; concentration 0.30%): more than 15 minutes

Gentamicin
Time of Survival of Demodex mites (Demodex mites; concentration 0.30%): more than 15 minutes

CC1COc2c(N3CCN(C)CC3)c(F)cc3c(=O)c(C(=O)O)cn1c23 (stereo not drawn) [Ofloxacin]
Time of Survival of Demodex mites (Demodex mites; concentration 0.30%): more than 15 minutes

C[C@H]1COc2c(N3CCN(C)CC3)c(F)cc3c(=O)c(C(=O)O)cn1c23 [Levofloxacin]
Time of Survival of Demodex mites (Demodex mites; concentration 0.50%): more than 15 minutes

CC1(C)C(C=C(Cl)Cl)C1C(=O)OCc1cccc(Oc2ccccc2)c1 (stereo not drawn) [Permethrin]
Time of Survival of Demodex mites (Demodex mites; concentration 10%): 5 min
Eyelid margin inflammation and eye symptoms (burning, itching, dry eyes, scales and deposits) after treatment (Demodex spp. infestation): reduction in inflammation of the eyelid margins
Skin inflammation symptoms and redness after treatment (Demodex spp. infestation): visible improvement
